Reference: patent publication US20240190880A1 (THE REGENTS OF THE UNIVERSITY OF MICHIGAN, priority 2021, published 2024)

Target: T1, ER (Homo sapiens, UniProt P03372)
T1 construct: host or cells: T47D and MCF7 human breast cancer cells
T1 sequence (P03372 1-595): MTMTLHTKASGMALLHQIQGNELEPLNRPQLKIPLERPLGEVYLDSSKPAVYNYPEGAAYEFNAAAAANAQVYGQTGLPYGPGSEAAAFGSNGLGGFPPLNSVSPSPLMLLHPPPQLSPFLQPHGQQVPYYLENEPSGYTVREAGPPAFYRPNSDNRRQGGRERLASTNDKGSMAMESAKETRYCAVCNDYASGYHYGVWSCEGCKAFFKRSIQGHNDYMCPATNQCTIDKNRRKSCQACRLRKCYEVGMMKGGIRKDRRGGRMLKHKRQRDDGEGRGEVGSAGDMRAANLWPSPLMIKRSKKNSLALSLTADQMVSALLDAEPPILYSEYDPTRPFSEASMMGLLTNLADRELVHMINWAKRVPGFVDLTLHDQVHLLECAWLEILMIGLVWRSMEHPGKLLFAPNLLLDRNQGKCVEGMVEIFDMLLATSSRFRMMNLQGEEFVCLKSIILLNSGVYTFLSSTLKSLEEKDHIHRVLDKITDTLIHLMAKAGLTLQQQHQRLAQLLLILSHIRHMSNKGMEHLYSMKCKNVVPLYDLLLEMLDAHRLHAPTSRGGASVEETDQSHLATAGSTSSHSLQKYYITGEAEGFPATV
Test: ER degradation activity, in-cell western blot analysis in T47D cells
Assay type: cell-based
Settings: 16 hours, Table A does not say which cell line (T47D or MCF7), read-out: Potency (DC50)
Procedure: ER degradation activity was evaluated in the human breast cancer cell line T47D and MCF7 purchased from the American Type Culture Collection (ATCC), Manassas, VA, and maintained and cultured in Dulbecco's Modified Eagle's medium (DMEM) containing 10% fetal bovine serum, 1 unit/ml of penicillin and 1 μg/ml of streptomycin.
The protocol for the in-cell western blot analysis: a. seed cells in black-sided/clear bottom 96- or 384-well plates at 40,000 or 10,000 cells/well, overnight; b. add diluted compounds (final 0.5% DMSO), 16 hours. […] RT 2 h, gentle shaking. Negative control: cells plus secondary antibodies (no primary antibodies); e. wash ×4 with PBS+0.05-0.1% Tween 20, gentel shaking; f. anti-rabbit-680 and anti-mouse-800 (both 1:1000 in LiCor block+0.05% Tween20, RT 1 h, gentle shaking, no light. LI-COR: 0.2% to reduce background; g. wash×4 with PBS+0.05% Tween 20, gental shaking; h. add 100 μL or 25 μL of PBS to each well and read on CLX plate reader. The relative ER percentage in treated cells were obtained by comparing the values of treated wells to those in untreated and DMSO-treated wells as 100%.

| DC50 [nM] | SMILES |
| --- | --- |
| < 10 | C[C@@H]1Cc2c([nH]c3ccccc23)[C@@H](c2c(F)cc(N3CCC4(CN(C(=O)CN5Cc6cc7c(cc6C5)C(=O)N(C5CCC(=O)NC5=O)C7)C4)C3)cc2F)N1CC(F)F (stereo partly drawn) [E 72, 3-(6-(2-(6-(4-((1R,3R)-2-(2,2-difluoroethyl)-3-methyl-2,3,4,9-tetrahydro-1H-pyrido[3,4-b]indol-1-yl)-3,5-difluorophenyl)-2,6-diazaspiro[3.4]octan-2-yl)-2-oxoethyl)-1-oxo-3,5,6,7-tetrahydropyrrolo[3,4-f]isoindol-2(1H)-yl)piperidine-2,6-dione] |
| 10 to 100 | C[C@@H]1Cc2c([nH]c3ccccc23)[C@@H](c2c(F)cc(N3CC(CC(=O)N4CC(N5Cc6cc7c(cc6C5)C(=O)N(C5CCC(=O)NC5=O)C7)C4)C3)cc2F)N1CC(F)F (stereo partly drawn) [E 103, 3-(6-(1-(2-(1-(4-((1R,3R)-2-(2,2-difluoroethyl)-3-methyl-2,3,4,9-tetrahydro-1H-pyrido[3,4-b]indol-1-yl)-3,5-difluorophenyl)azetidin-3-yl)acetyl)azetidin-3-yl)-1-oxo-3,5,6,7-tetrahydropyrrolo[3,4-f]isoindol-2(1H)-yl)piperidine-2,6-dione] |
| > 100 | C[C@@H]1Cc2cc(O)ccc2[C@@H](c2c(F)cc(N3CCC(C(=O)N4CCC(N5Cc6cc7c(cc6C5)C(=O)N(C5CCC(=O)NC5=O)C7=O)CC4)CC3)cc2F)N1CC(F)F (stereo partly drawn) [E 269, 6-(1-(1-(4-((1S,3R)-2-(2,2-difluoroethyl)-6-hydroxy-3-methyl-1,2,3,4-tetrahydroisoquinolin-1-yl)-3,5-difluorophenyl)piperidine-4-carbonyl)piperidin-4-yl)-2-(2,6-dioxopiperidin-3-yl)-6,7-dihydropyrrolo[3,4-f]isoindole-1,3(2H,5H)-dione] |
| < 10 | C[C@@H]1Cc2c([nH]c3ccccc23)[C@@H](c2c(F)cc(C3CCC(C(=O)N4CCC(N5Cc6cc7c(cc6C5)C(=O)N(C5CCC(=O)NC5=O)C7)CC4)CC3)cc2F)N1CC(F)F (stereo partly drawn) [E 307, 3-(6-(1-(4-(4-((1R,3R)-2-(2,2-difluoroethyl)-3-methyl-2,3,4,9-tetrahydro-1H-pyrido[3,4-b]indol-1-yl)-3,5-difluorophenyl)cyclohexane-1-carbonyl)piperidin-4-yl)-1-oxo-3,5,6,7-tetrahydropyrrolo[3,4-f]isoindol-2(1H)-yl)piperidine-2,6-dione] |
| < 10 | C[C@@H]1Cc2cc(O)ccc2[C@@H](c2c(F)cc(N3CCC4(CC3)CN(CC(=O)N3Cc5cc6c(cc5C3)C(=O)N(C3CCC(=O)NC3=O)C6)C4)cc2F)N1CC(F)F (stereo partly shown) [E 39] |
| > 100 | C[C@@H]1Cc2c([nH]c3ccccc23)[C@@H](c2c(F)cc(C3CCC(C(=O)N4CC(N5Cc6cc7c(cc6C5)C(=O)N(C5CCC(=O)NC5=O)C7=O)C4)CC3)cc2F)N1CC(F)F (stereo partly drawn) [E249, 6-(1-(4-(4-((1R,3R)-2-(2,2-difluoroethyl)-3-methyl-2,3,4,9-tetrahydro-1H-pyrido[3,4-b]indol-1-yl)-3,5-difluorophenyl)cyclohexane-1-carbonyl)azetidin-3-yl)-2-(2,6-dioxopiperidin-3-yl)-6,7-dihydropyrrolo[3,4-f]isoindole-1,3(2H,5H)-dione] |
| > 100 | C[C@@H]1Cc2c([nH]c3ccccc23)[C@@H](c2ccc(C3=CCC(C(=O)N4CCC(N5Cc6cc7c(cc6C5)C(=O)N(C5CCC(=O)NC5=O)C7=O)CC4)CC3)cc2)N1CC(F)F (stereo partly drawn) [E 316, 6-(1-(4′-((1R,3R)-2-(2,2-difluoroethyl)-3-methyl-2,3,4,9-tetrahydro-1H-pyrido[3,4-b]indol-1-yl)-2,3,4,5-tetrahydro-[1,1′-biphenyl]-4-carbonyl)piperidin-4-yl)-2-(2,6-dioxopiperidin-3-yl)-6,7-dihydropyrrolo[3,4-f]isoindole-1,3(2H,5H)-dione] |
| > 100 | O=C1CCC(N2C(=O)c3cc4c(cc3C2=O)CN(C2CCC3(CC2)CCN(c2ccc([C@@H]5c6ccc(O)cc6CC[C@@H]5c5ccccc5)cc2)CC3)C4)C(=O)N1 (stereo partly drawn) [E 160, 2-(2,6-dioxopiperidin-3-yl)-6-(3-(4-((1R,2S)-6-hydroxy-2-phenyl-1,2,3,4-tetrahydronaphthalen-1-yl)phenyl)-3-azaspiro[5.5]undecan-9-yl)-6,7-dihydropyrrolo[3,4-f]isoindole-1,3(2H,5H)-dione] |
| > 100 | O=C1CCC(N2C(=O)c3cc4c(cc3C2=O)CN(C[C@H]2CC[C@H](N3CC(Nc5ccc([C@@H]6c7ccc(O)cc7CC[C@@H]6c6ccccc6)cc5)C3)CC2)C4)C(=O)N1 (stereo partly drawn) [E 374, 2-(2,6-dioxopiperidin-3-yl)-6-(((1R,4r)-4-(3-((4-((1R,2S)-6-hydroxy-2-phenyl-1,2,3,4-tetrahydronaphthalen-1-yl)phenyl)amino)azetidin-1-yl)cyclohexyl)methyl)-6,7-dihydropyrrolo[3,4-f]isoindole-1,3(2H,5H)-dione] |
| > 100 | O=C1CCC(N2C(=O)c3cc4c(cc3C2=O)CN(CC2(F)CN(C(=O)C3CCN(c5ccc([C@@H]6c7ccc(O)cc7CC[C@@H]6c6ccccc6)cc5)CC3)C2)C4)C(=O)N1 (stereo partly drawn) [E 207, 2-(2,6-dioxopiperidin-3-yl)-6-((3-fluoro-1-(1-(4-((1R,2S)-6-hydroxy-2-phenyl-1,2,3,4-tetrahydronaphthalen-1-yl)phenyl)piperidine-4-carbonyl)azetidin-3-yl)methyl)-6,7-dihydropyrrolo[3,4-f]isoindole-1,3(2H,5H)-dione] |

Same assay, conditions: compounds 16 hours, Table A does not say whether T47D or MCF7, read-out: Potency (DC50)

| DC50 [nM] | SMILES |
| --- | --- |
| 10 to 100 | C[C@@H]1Cc2c(ccc3[nH]ncc23)[C@@H](c2c(F)cc(N3CCC(C(=O)N4C5CCC4CC(N4Cc6cc7c(cc6C4)C(=O)N(C4CCC(=O)NC4=O)C7=O)C5)CC3)cc2F)N1CC(F)F (stereo partly shown) [E 469] |
| 10 to 100 | COc1c2c(cc3c1C(=O)N(C1CCC(=O)NC1=O)C3=O)CN(CC(=O)N1CCC3(CC1)CCN(c1ccc([C@@H]4c5ccc(O)cc5CC[C@@H]4c4ccccc4)cc1)CC3)C2 (stereo partly drawn) [E 420, 2-(2,6-dioxopiperidin-3-yl)-6-(2-(9-(4-((1R,2S)-6-hydroxy-2-phenyl-1,2,3,4-tetrahydronaphthalen-1-yl)phenyl)-3,9-diazaspiro[5.5]undecan-3-yl)-2-oxoethyl)-4-methoxy-6,7-dihydropyrrolo[3,4-f]isoindole-1,3(2H,5H)-dione] |
| > 100 | C[C@@H]1Cc2c([nH]c3ccccc23)[C@@H](c2ncc(C3=CCC(C(=O)N4CCC(N5Cc6cc7c(cc6C5)C(=O)N(C5CCC(=O)NC5=O)C7=O)CC4)CC3)cc2F)N1CC(F)F (stereo partly drawn) [E 399, 6-(1-(4-(6-((1S,3R)-2-(2,2-difluoroethyl)-3-methyl-2,3,4,9-tetrahydro-1H-pyrido[3,4-b]indol-1-yl)-5-fluoropyridin-3-yl)cyclohex-3-ene-1-carbonyl)piperidin-4-yl)-2-(2,6-dioxopiperidin-3-yl)-6,7-dihydropyrrolo[3,4-f]isoindole-1,3(2H,5H)-dione] |
| > 100 | O=C1CCC(N2C(=O)c3cc4c(cc3C2=O)CN(CC(=O)N2CCC3(CC2)CN(C(=O)c2ccc([C@@H]5c6ccc(O)cc6CC[C@@H]5c5ccccc5)cc2)C3)C4)C(=O)N1 (stereo partly drawn) [E 496, 2-(2,6-dioxopiperidin-3-yl)-6-(2-(2-(4-((1R,2S)-6-hydroxy-2-phenyl-1,2,3,4-tetrahydronaphthalen-1-yl)benzoyl)-2,7-diazaspiro[3.5]nonan-7-yl)-2-oxoethyl)-6,7-dihydropyrrolo[3,4-f]isoindole-1,3(2H,5H)-dione] |
| > 100 | Cn1cc(-c2ccc3c(c2)CC[C@H](c2ccccc2)[C@@H]3c2ccc(N3CCC4(CCN(C(=O)CN5Cc6cc7c(cc6C5)C(=O)N(C5CCC(=O)NC5=O)C7=O)CC4)CC3)cc2)cn1 (stereo partly drawn) [E 509, 2-(2,6-dioxopiperidin-3-yl)-6-(2-(9-(4-((1R,2S)-6-(1-methyl-1H-pyrazol-4-yl)-2-phenyl-1,2,3,4-tetrahydronaphthalen-1-yl)phenyl)-3,9-diazaspiro[5.5]undecan-3-yl)-2-oxoethyl)-6,7-dihydropyrrolo[3,4-f]isoindole-1,3(2H,5H)-dione] |
| > 100 | C[C@@H]1Cc2c([nH]c3ccccc23)[C@@H](c2c(F)cc(C3CCC(C(=O)N4CCC(N5Cc6cc7c(cc6C5)C(=O)N(C5CCC(=O)NC5=O)C7=O)CC4)CC3)cc2F)N1CC(F)(F)CO (stereo partly drawn) [E 400, 6-(1-(4-(4-((1R,3R)-2-(2,2-difluoro-3-hydroxypropyl)-3-methyl-2,3,4,9-tetrahydro-1H-pyrido[3,4-b]indol-1-yl)-3,5-difluorophenyl)cyclohexane-1-carbonyl)piperidin-4-yl)-2-(2,6-dioxopiperidin-3-yl)-6,7-dihydropyrrolo[3,4-f]isoindole-1,3(2H,5H)-dione] |
